Results reported in ChEMBL document CHEMBL1150849, “Antiprotozoal activity of the constituents of Conyza filaginoides” (J Nat Prod, 2001).
Values after ≈ are worked out from the molar mass of the structure shown.

Tests used:
[1] = tested on: Entamoeba histolytica; test: Antiprotozoal activity against Entamoeba histolytica HM-1:IMSS trophozoites after 48 hrs by MTT/PMS assay; format: functional, organism-based
[2] = tested on: Giardia intestinalis; test: Antiprotozoal activity against Giardia lamblia IMSS:0989:1 after 48 hrs by MTT/PMS assay; format: functional, organism-based; details: Giardia duodenalis, IMSS:0989:1, 48 h

SMILES	IC50 [1] [µg/mL]	IC50 [2] [µg/mL]
O=C(/C=C/c1ccc(O)c(O)c1)OC[C@H]1O[C@@H](Oc2c(-c3ccc(O)c(O)c3)oc3cc(O)cc(O)c3c2=O)[C@H](O)[C@@H](O)[C@@H]1O	14 (≈ 22.3 µM)	105 (≈ 167 µM)
COc1cc(-c2oc3cc(O)cc(O)c3c(=O)c2O[C@@H]2O[C@H](COC(=O)/C=C/c3ccc(O)c(O)c3)[C@H](O)[C@H](O)[C@H]2O)ccc1O	47.7 (≈ 74.5 µM)	15.3 (≈ 23.9 µM)
C[C@@H]1O[C@@H](OC[C@H]2O[C@@H](Oc3c(-c4ccc(O)c(O)c4)oc4cc(O)cc(O)c4c3=O)[C@H](O)[C@@H](O)[C@@H]2O)[C@H](O)[C@H](O)[C@H]1O [RUTIN]	120 (≈ 196 µM)	179 (≈ 293 µM)
CC1(C)CC[C@]2(CO)CC[C@]3(C)C(=CC[C@@H]4[C@@]5(C)CC[C@H](O)C(C)(C)[C@@H]5CC[C@]43C)[C@@H]2C1 [ERYTHRODIOL]	12.7 (≈ 28.7 µM)	29.9 (≈ 67.5 µM)
O=c1c(O[C@@H]2O[C@H](CO)[C@@H](O)[C@H](O)[C@H]2O)c(-c2ccc(O)cc2)oc2cc(O)cc(O)c12 [ASTRAGALIN]	61.2 (≈ 136 µM)	47.5 (≈ 106 µM)
C=C1CC[C@H]2O[C@@]2(C)CC[C@@H]2[C@@H]1CC2(C)C	71.3 (≈ 324 µM)	53.8 (≈ 244 µM)
CC[C@H]1CN2CCc3cc(OC)c(OC)cc3[C@@H]2C[C@@H]1C[C@H]1NCCc2cc(OC)c(OC)cc21 [EMETINE]	1.05 (≈ 2.18 µM)	0.41 (≈ 0.853 µM)
COc1cc(-c2oc3cc(O)cc(O)c3c(=O)c2O[C@@H]2O[C@H](CO[C@@H]3O[C@@H](C)[C@H](O)[C@@H](O)[C@H]3O)[C@@H](O)[C@H](O)[C@H]2O)ccc1O [NARCISSIN]	17.2 (≈ 27.5 µM)	94.7 (≈ 152 µM)
O=C(/C=C/c1ccc(O)c(O)c1)OC[C@H]1O[C@@H](Oc2c(-c3ccc(O)cc3)oc3cc(O)cc(O)c3c2=O)[C@H](O)[C@@H](O)[C@H]1O	30 (≈ 49.1 µM)	47 (≈ 77 µM)
O=c1c(O[C@@H]2O[C@H](CO)[C@@H](O)[C@H](O)[C@H]2O)c(-c2ccc(O)c(O)c2)oc2cc(O)cc(O)c12 [ISOQUERCETIN]	14.7 (≈ 31.7 µM)	87.3 (≈ 188 µM)
C[C@@H]1O[C@@H](OC[C@H]2O[C@@H](Oc3c(-c4ccc(O)cc4)oc4cc(O)cc(O)c4c3=O)[C@H](O)[C@@H](O)[C@@H]2O)[C@H](O)[C@H](O)[C@H]1O [NICOTIFLOROSIDE]	30.9 (≈ 52 µM)	22.5 (≈ 37.8 µM)
